From US10280401B2, “Method of measuring inhibition of phosphatidylcholine export transport and/or formation activity” (Biotranex, LLC, priority 2015, dated 2019)

Assays:
[1] = tested on: PC export transport activity; experiment: Inhibition of PC export transport activity in rat hepatocytes (d9-choline, taurocholic acid, LC/MS/MS); type: cell-based; details: Hepatocyte, 100 μg/mL d9-choline, 5 mM taurocholic acid, 2 hours; for inhibition at 1 µM: drug 1 μM; for inhibition at 10 µM: drug 10 μM; for inhibition at 100 µM: drug 100 μM
Procedure: (§1) The effect of a test agent in terms of percentage (%) of inhibition on PC export transport and/or formation activity is determined by the following equation: […]
(§2) Fifty mL InVitroGRO HT medium was pre-warmed in a 37° C. water bath. A vial of hepatocyte was removed from a liquid N2 tank and quickly warmed in a 37° C. water bath by holding in hand with slow rotation. As soon as the edge of the frozen cells was separated from the wall of the vial, the frozen cells were poured into the pre-warmed HT medium and the remaining cells in the vial were collected using pipette. The tube was centrifuged at 50 g, 25° C. for 5 minutes, the supernatant was removed and the cell pellet was re-suspended in 8 mL of pre-warmed Williams E buffer, the cell numbers were counted in a hemocytometer. […] The cells were counted in 0.4% Trypan blue (80 μL Williams E buffer+10 μL Trypan blue stock+10 μL cells). The hepatocyte concentration was adjusted with Williams E buffer to meet the objectives of various experiments.
(§3) LC/MS/MS assays: Liquid chromatography was carried out using a Shimadzu (Columbia, Md.) HPLC system consisting of an SCL-10 Avp system controller, two LC-10 ADvp pumps, a CTC HTC PAL autosampler, a Shimadzu SPD-10 ADvp UV detector and an automated switching valve. The switching valve was used to divert the column effluent to either waste or to the MS instrument. The Shimadzu HPLC system was used for sample injection and analyte separation. Each sample was loaded onto a reverse phase column, Phenomenex (Torrance, Calif.) Luna C85μ2 mm×50 mm. The column chamber's temperature was ambient. The initial HPLC mobile phase conditions used for separation and elution of analytes comprised 50% acetonitrile in water containing 0.1% formic acid (A) and isopropanol:acetonitrile (9:1) (B). The flow rate was 0.5 mL/min. The amount of B in the mobile phase was ramped linearly up to 62% over a 0.5-minute period followed by a slow increase to 63% B in 4.5 minutes, then a rapid increase to 95% B in 0.1 min. After holding at 95% B for 2.3 minutes, the mobile phase was reset to the initial conditions in 0.1 minute. The analytical column was equilibrated with the starting mobile phase for 2.5 minutes. The total run time for each sample analysis was approximately 10 minutes.
(§4) The HPLC elute was injected into an AB Sciex AP14000 LC/MS/MS system (Framingham, Mass.) equipped with a Turbo IonSpray source set with a desolvation temperature of 450° C. Nitrogen was used as curtain gas, nebulizer gas, heater gas, and collision gas. Data for PC was acquired in the positive ion mode using multiple reaction monitoring methods (MRM). The ion transitions of the MRM method for specific detection of PC species were developed in standard fashion. Ionspray voltage was set at 4000 V and the collision gas (CAD) set at 6. Declustering potential and collision energy was set at 50 and 42 respectively for PC. The PC species were monitored using the following transitions: 768→193, 770→193, 796→193, 798→193, 792→193, 794→193, 816→193. (S)-(+)-Methyl 2-(4,5,6,7-tetrahydrothieno[3,2-c]pyridin-5-yl)-2-(2-chlorophenyl)acetate hydrogensulfate was used as an internal standard with the following ion transition: 322.2→152.1. Propane-1-sulfonic acid {3-[5-(4-chlorophenyl)-1H-pyrrolo[2,3-b]pyridine-3-carbonyl]-2,4difluoro-phenyl}-amide was also used as an internal standard with the following ion transition: 490.1→383.1.
(§5) Data analysis: Extracellular concentrations of PC were determined by LC/MS/MS MRM analysis of the 4000 RPM supernatant fractions post-incubation. Cellular concentrations of PC were determined by LC/MS/MS MRM of the extracts of hepatocytes post incubation. PC export transport and/or formation activity and test agent percent inhibition were calculated using the following equations: […]

[2] = tested on: PC export transport activity; experiment: Inhibition of PC export transport activity in human hepatocytes (d9-choline, taurocholic acid, LC/MS/MS); type: cell-based; details: Hepatocyte, 100 μg/mL d9-choline, 5 mM taurocholic acid, 2 hours; for inhibition at 1 µM: drug 1 μM; for inhibition at 10 µM: drug 10 μM; for inhibition at 100 µM: drug 100 μM
Procedure: as §1, §2, §3, §4, §5

COC1=CC(=O)C[C@@H](C)[C@]12Oc1c(Cl)c(OC)cc(OC)c1C2=O [Griseofulvin, griseofulvin]
inhibition at 1 µM [1]: ≤ 30%
inhibition at 10 µM [1]: 30 to 70%
inhibition at 100 µM [1]: ≥ 70%

Cc1c(C)c2c(c(C)c1O)CCC(C)(COc1ccc(CC3SC(=O)NC3=O)cc1)O2 (stereo not drawn) [Troglitazone, troglitazone]
inhibition at 1 µM [2]: ≤ 30%
inhibition at 10 µM [2]: 30 to 70%
inhibition at 100 µM [2]: ≥ 70%

CC1=C(CC(=O)O)c2cc(F)ccc2/C1=C\c1ccc([S+](C)[O-])cc1 (stereo not drawn) [Sulindac, sulindac]
inhibition at 1 µM [1]: ≤ 30%
inhibition at 10 µM [1]: 30 to 70%
inhibition at 100 µM [1]: ≥ 70%

CC(=O)N1CCN(c2ccc(OCC3COC(Cn4ccnc4)(c4ccc(Cl)cc4Cl)O3)cc2)CC1 (stereo not drawn) [Ketoconazole, ketoconazole]
inhibition at 1 µM [1]: 30 to 70%
inhibition at 10 µM [1]: 30 to 70%
inhibition at 100 µM [1]: ≥ 70%
inhibition at 1 µM [2]: ≤ 30%
inhibition at 10 µM [2]: 30 to 70%
inhibition at 100 µM [2]: ≥ 70%

CN(C)CCCN1c2ccccc2Sc2ccc(Cl)cc21 [Chlorpromazine, chlorpromazine]
inhibition at 1 µM [1]: 30 to 70%
inhibition at 10 µM [1]: ≥ 70%
inhibition at 100 µM [1]: ≥ 70%
inhibition at 1 µM [2]: ≤ 30%
inhibition at 10 µM [2]: 30 to 70%
inhibition at 100 µM [2]: ≥ 70%

CC(C)(S)[C@@H](N)C(=O)O [Penicillamine, penicillamine]
inhibition at 1 µM [2]: ≤ 30%
inhibition at 10 µM [2]: ≤ 30%
inhibition at 100 µM [2]: ≤ 30%

O=C(O)CCCC[C@@H]1SC[C@@H]2NC(=O)N[C@@H]21 [Biotin, biotin]
inhibition at 1 µM [1]: ≤ 30%
inhibition at 10 µM [1]: ≤ 30%
inhibition at 100 µM [1]: ≤ 30%
inhibition at 1 µM [2]: ≤ 30%
inhibition at 10 µM [2]: ≤ 30%
inhibition at 100 µM [2]: ≤ 30%

Clc1ccccc1C(c1ccccc1)(c1ccccc1)n1ccnc1 [Clotrimazole, clotrimazole]
inhibition at 1 µM [1]: ≤ 30%
inhibition at 10 µM [1]: ≤ 30%
inhibition at 100 µM [1]: ≥ 70%
